{"source": "PubChem BioAssay AID330", "about": "(DTP/NCI, 2004)", "tested_on": "P388 leukemia ip, CD2F1 mice, survival T/C", "assay": "NCI In Vivo Anticancer Drug Screen. Data for tumor model P388 Leukemia (intraperitoneal) in CD2F1 (CDF1) mice", "conditions": "endpoint: median survival time, higher = longer survival", "how_it_was_run": "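Mice carrying the transplanted tumor received test compound or vehicle. Survival was recorded in each group, and the value is the treated-group measurement divided by that of the vehicle-treated control group.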", "key": {"[1]": {"conditions": "dose: 50.0 mg/kg/injection, schedule: Q01DX009 (ip), vehicle: Klucel (hydroxypropylcellulose) (HPC)"}, "[2]": {"conditions": "dose: 100.0 mg/kg/injection, schedule: Q01DX009 (ip), vehicle: Klucel (hydroxypropylcellulose) (HPC)"}, "[3]": {"conditions": "dose: 200.0 mg/kg/injection, schedule: Q01DX009 (ip), vehicle: Klucel (hydroxypropylcellulose) (HPC)"}, "[4]": {"conditions": "dose: 60.0 mg/kg/injection, schedule: Q01DX005 (ip), vehicle: saline with Tween-80"}, "[5]": {"conditions": "dose: 50.0 mg/kg/injection, schedule: Q01DX005 (ip), vehicle: saline with Tween-80"}, "[6]": {"conditions": "dose: 100.0 mg/kg/injection, schedule: Q01DX005 (ip), vehicle: saline with Tween-80"}, "[7]": {"conditions": "dose: 50.0 mg/kg/injection, schedule: Q01DX005 (ip), vehicle: Klucel (hydroxypropylcellulose) (HPC)"}, "[8]": {"conditions": "dose: 100.0 mg/kg/injection, schedule: Q01DX005 (ip), vehicle: Klucel (hydroxypropylcellulose) (HPC)"}, "[9]": {"conditions": "dose: 50.0 mg/kg/injection, schedule: Q01DX009 (ip), vehicle: saline"}}, "note": "Toxic doses and inconclusive results are not listed.", "data": [{"molecule": "O=S1(=O)CCN(C2CCS(=O)(=O)C2)CC1", "note": "(configuration not stated)", "values": [{"measurement": "T/C", "setting": "[1]", "value": "90 % of control"}, {"measurement": "T/C", "setting": "[2]", "value": "99 % of control"}, {"measurement": "T/C", "setting": "[3]", "value": "90 % of control"}]}, {"molecule": "CCO/C=C1/N=C(c2ccc(Cl)cc2)OC1=O", "values": [{"measurement": "T/C", "setting": "[4]", "value": "121 % of control"}]}, {"molecule": "Cl/C(=C\\c1ccccc1)c1nc2ccccc2nc1Cl", "values": [{"measurement": "T/C", "setting": "[1]", "value": "96 % of control"}, {"measurement": "T/C", "setting": "[2]", "value": "89 % of control"}, {"measurement": "T/C", "setting": "[3]", "value": "92 % of control"}]}, {"molecule": "C1COCCOCCNCCOCCOCCN1", "values": [{"measurement": "T/C", "setting": "dose: 50.0 mg/kg/injection, schedule: Q01DX005 (ip), vehicle: saline", "value": "95 % of control"}, {"measurement": "T/C", "setting": "dose: 100.0 mg/kg/injection, schedule: Q01DX005 (ip), vehicle: saline", "value": "98 % of control"}]}, {"molecule": "COc1ccc(C23OCCN2C(=O)c2ccccc23)cc1", "note": "(configuration not stated)", "values": [{"measurement": "T/C", "setting": "dose: 60.0 mg/kg/injection, schedule: Q01DX005 (ip), vehicle: saline + Tween-80 + alcohol", "value": "99 % of control"}, {"measurement": "T/C", "setting": "dose: 120.0 mg/kg/injection, schedule: Q01DX005 (ip), vehicle: saline + Tween-80 + alcohol", "value": "100 % of control"}, {"measurement": "T/C", "setting": "dose: 240.0 mg/kg/injection, schedule: Q01DX005 (ip), vehicle: saline + Tween-80 + alcohol", "value": "101 % of control"}]}, {"molecule": "CCOc1ccc(NC2OC(CO)C(O)C(O)C2NC(C)=O)cc1", "note": "(configuration not stated)", "values": [{"measurement": "T/C", "setting": "[5]", "value": "105 % of control"}, {"measurement": "T/C", "setting": "[6]", "value": "101 % of control"}, {"measurement": "T/C", "setting": "dose: 200.0 mg/kg/injection, schedule: Q01DX005 (ip), vehicle: saline with Tween-80", "value": "96 % of control"}]}, {"molecule": "COC(=O)CCC1=C(C)c2cc3[n-]c(cc4nc(cc5[n-]c(cc1n2)c(CCC(=O)OC)c5C)C=C4C)cc3C.[Ni+2]", "values": [{"measurement": "T/C", "setting": "dose: 100.0 mg/kg/injection, schedule: Q01DX009 (ip), vehicle: saline with Tween-80", "value": "90 % of control"}, {"measurement": "T/C", "setting": "dose: 200.0 mg/kg/injection, schedule: Q01DX009 (ip), vehicle: saline with Tween-80", "value": "90 % of control"}, {"measurement": "T/C", "setting": "dose: 400.0 mg/kg/injection, schedule: Q01DX009 (ip), vehicle: saline with Tween-80", "value": "86 % of control"}]}, {"molecule": "C=CCSC(=NC#N)SC", "values": [{"measurement": "T/C", "setting": "dose: 3.12 mg/kg/injection, schedule: Q01DX005 (ip), vehicle: Klucel (hydroxypropylcellulose) (HPC)", "value": "101 % of control"}, {"measurement": "T/C", "setting": "dose: 6.25 mg/kg/injection, schedule: Q01DX005 (ip), vehicle: Klucel (hydroxypropylcellulose) (HPC)", "value": "101 % of control"}, {"measurement": "T/C", "setting": "dose: 12.5 mg/kg/injection, schedule: Q01DX005 (ip), vehicle: Klucel (hydroxypropylcellulose) (HPC)", "value": "107 % of control"}]}, {"molecule": "O=C1c2c(Cl)c(Cl)c(Cl)c(Cl)c2C(=O)N1c1ccccc1-c1ccccc1", "values": [{"measurement": "T/C", "setting": "dose: 87.5 mg/kg/injection, schedule: Q01DX009 (ip), vehicle: saline with Tween-80", "value": "97 % of control"}, {"measurement": "T/C", "setting": "dose: 175.0 mg/kg/injection, schedule: Q01DX009 (ip), vehicle: saline with Tween-80", "value": "97 % of control"}, {"measurement": "T/C", "setting": "dose: 350.0 mg/kg/injection, schedule: Q01DX009 (ip), vehicle: saline with Tween-80", "value": "97 % of control"}]}, {"molecule": "CCOC(=O)Nc1cc2c(cn1)[nH]c1ccccc12", "values": [{"measurement": "T/C", "setting": "[4]", "value": "105 % of control"}, {"measurement": "T/C", "setting": "dose: 120.0 mg/kg/injection, schedule: Q01DX005 (ip), vehicle: saline with Tween-80", "value": "114 % of control"}, {"measurement": "T/C", "setting": "dose: 240.0 mg/kg/injection, schedule: Q01DX005 (ip), vehicle: saline with Tween-80", "value": "112 % of control"}]}, {"molecule": "C=CCN=C(NC(C)(C)C)c1ccccc1", "values": [{"measurement": "T/C", "setting": "[7]", "value": "107 % of control"}, {"measurement": "T/C", "setting": "[8]", "value": "96 % of control"}]}, {"molecule": "COc1cc(C2c3cc4c(cc3CCN2C)OCO4)cc(OC)c1OC", "note": "(configuration not stated)", "values": [{"measurement": "T/C", "setting": "[5]", "value": "106 % of control"}, {"measurement": "T/C", "setting": "[6]", "value": "94 % of control"}]}, {"molecule": "O=c1c2ccccc2[nH]c2c1[nH]c1ccccc12", "values": [{"measurement": "T/C", "setting": "[7]", "value": "89 % of control"}, {"measurement": "T/C", "setting": "[8]", "value": "90 % of control"}]}, {"molecule": "CC(=N)C1C(=O)C=C(C)OC1=O", "note": "(configuration not stated)", "values": [{"measurement": "T/C", "setting": "[9]", "value": "86 % of control"}, {"measurement": "T/C", "setting": "dose: 100.0 mg/kg/injection, schedule: Q01DX009 (ip), vehicle: saline", "value": "88 % of control"}, {"measurement": "T/C", "setting": "dose: 200.0 mg/kg/injection, schedule: Q01DX009 (ip), vehicle: saline", "value": "88 % of control"}]}, {"molecule": "CCCCCCCCOS(=O)(=O)c1ccc([N+](C)(C)C)cc1", "values": [{"measurement": "T/C", "setting": "dose: 12.5 mg/kg/injection, schedule: Q01DX009 (ip), vehicle: saline", "value": "103 % of control"}, {"measurement": "T/C", "setting": "dose: 25.0 mg/kg/injection, schedule: Q01DX009 (ip), vehicle: saline", "value": "105 % of control"}, {"measurement": "T/C", "setting": "[9]", "value": "110 % of control"}]}, {"molecule": "C/C=C/C=C1/OC(C)=C(C(=O)OCC)C1=O", "values": [{"measurement": "T/C", "setting": "dose: 6.25 mg/kg/injection, schedule: Q01DX009 (ip), vehicle: Klucel (hydroxypropylcellulose) (HPC)", "value": "107 % of control"}, {"measurement": "T/C", "setting": "dose: 12.5 mg/kg/injection, schedule: Q01DX009 (ip), vehicle: Klucel (hydroxypropylcellulose) (HPC)", "value": "111 % of control"}, {"measurement": "T/C", "setting": "[1]", "value": "123 % of control"}]}]}
